Reference: ChEMBL document CHEMBL1153684, “Antiinflammatory -benzeneethanamines. III” (Bioorg Med Chem Lett, 1993)

tested on: Rattus norvegicus; assay: Compound was tested for its oral antiinflammatory activity in the rat carrageenan paw edema assay (CAR); type: functional; conditions: not given

First: COc1ccc2c(c1)c(CC(=O)O)c(C)n2C(=O)c1ccc(Cl)cc1 [INDOMETHACIN]
Second: CCN(CC)CCCC(C)Nc1c2ccc(Cl)cc2nc2ccc(OC)cc12 (stereo not given) [QUINACRINE]
The ED30 of the first is lower: 2.8 µM/kg for the first, 5.8 µM/kg for the second.

Compared with `Cc1ccc(SCCCC(CN)c2ccc(F)cc2)cc1.Cl` (stereo in doubt; 2), `Cc1ccc(SCCCCC(CN)c2ccc(F)cc2)cc1.Cl` (stereo not given) is lower in ED30: 50 µM/kg for the first, 1.4 µM/kg for the second.

First: CC(C)(C)c1ccc(SCCCCC(CN)c2ccc(F)cc2)cc1.Cl (stereo not given)
Second: Cc1ccc(SCCCCCC(CN)c2ccc(F)cc2)cc1.Cl (stereo not given)
The ED30 of the first is higher: 153.8 µM/kg for the first, 117.7 µM/kg for the second.

For `Cl.NCC(CCCCSc1ccc2ccccc2c1)c1ccc(F)cc1` (stereo not given), the ED30 was 171.3 µM/kg.

In the case of `C[C@@H]1C[C@H]2[C@@H]3CCC4=CC(=O)C=C[C@]4(C)[C@@]3(F)[C@@H](O)C[C@]2(C)[C@@]1(O)C(=O)CO` [DEXAMETHASONE], the ED30 is reported as <2.5 µM/kg.
For `Cl.NCC(CCCSc1ccc2ccccc2c1)c1ccc(F)cc1` (stereo not given), the ED30 was >153.6 µM/kg.
`Cc1ccc(SCCCC(CN)c2ccc(F)cc2)cc1.Cl` (stereo in doubt) was tested, and the ED30 was >172.8 µM/kg.

same assay, conditions: Rattus norvegicus, po; read-out: ED30

`Cc1ccc(SCCCCC(CN)c2ccc(F)cc2)cc1.Cl` (stereo not given) was tested, and the ED30 was 0.51 mg/kg.

target: T1, Polyunsaturated fatty acid 5-lipoxygenase (Rattus norvegicus, UniProt P12527); assay: Inhibition of rat basophilic leukemia cell 5-lipoxygenase; conditions: not given
T1 sequence (P12527 whole entry): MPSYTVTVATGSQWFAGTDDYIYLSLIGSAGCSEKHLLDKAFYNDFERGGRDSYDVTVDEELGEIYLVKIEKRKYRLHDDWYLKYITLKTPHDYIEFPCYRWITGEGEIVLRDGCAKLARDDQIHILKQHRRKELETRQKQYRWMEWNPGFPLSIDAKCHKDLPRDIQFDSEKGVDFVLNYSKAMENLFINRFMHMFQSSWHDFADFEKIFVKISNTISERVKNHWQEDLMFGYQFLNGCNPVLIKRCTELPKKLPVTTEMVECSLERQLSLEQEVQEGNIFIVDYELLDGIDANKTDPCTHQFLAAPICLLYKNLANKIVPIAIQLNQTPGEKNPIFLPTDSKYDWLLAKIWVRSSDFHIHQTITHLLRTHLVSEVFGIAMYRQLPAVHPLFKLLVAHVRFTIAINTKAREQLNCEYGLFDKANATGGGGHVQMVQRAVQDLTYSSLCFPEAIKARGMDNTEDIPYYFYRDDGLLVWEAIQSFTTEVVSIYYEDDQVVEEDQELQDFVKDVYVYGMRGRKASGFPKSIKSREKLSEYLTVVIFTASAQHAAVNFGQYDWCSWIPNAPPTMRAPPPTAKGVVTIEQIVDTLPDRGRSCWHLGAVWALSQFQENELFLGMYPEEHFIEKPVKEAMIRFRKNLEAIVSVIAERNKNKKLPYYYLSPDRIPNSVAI

Compared with `COc1ccc2c(c1)c(CC(=O)O)c(C)n2C(=O)c1ccc(Cl)cc1` [INDOMETHACIN], `Cc1ccc(SCCCC(CN)c2ccc(F)cc2)cc1.Cl` (stereo in doubt; 2) is lower in IC50: > 250 µM for the first, 38 µM for the second.

`C[C@@H]1C[C@H]2[C@@H]3CCC4=CC(=O)C=C[C@]4(C)[C@@]3(F)[C@@H](O)C[C@]2(C)[C@@]1(O)C(=O)CO` [DEXAMETHASONE] and `CC(C)(C)c1ccc(SCCCCC(CN)c2ccc(F)cc2)cc1.Cl` (stereo not given) cannot be ordered by IC50: > 25 µM for the first, 230 µM for the second.

Compared with `Cl.NCC(CCCSc1ccc2ccccc2c1)c1ccc(F)cc1` (stereo not given), `Cl.NCC(CCCCSc1ccc2ccccc2c1)c1ccc(F)cc1` (stereo not given) is 5.7-fold higher in IC50: 23 µM for the first, 130 µM for the second. The first is the more potent here.

Going from `Cc1ccc(SCCCC(CN)c2ccc(F)cc2)cc1.Cl` (stereo in doubt) to `Cc1ccc(SCCCCC(CN)c2ccc(F)cc2)cc1.Cl` (stereo not given), the IC50 falls from 75 µM to 9.5 µM (7.9-fold).

`Cc1ccc(SCCCCCC(CN)c2ccc(F)cc2)cc1.Cl` (stereo not given) showed an IC50 of 35 µM.

tested on: Rattus norvegicus; assay: Percent inhibition for its antiinflammatory activity in the rat carrageenan paw edema assay (CAR), % inhibition at 50 mg/Kg; type: functional; conditions: not given

In the case of `Cc1ccc(SCCCCC(CN)c2ccc(F)cc2)cc1.Cl` (stereo not given), the inhibition in vivo at 50 mg/kg is reported as 59%.

tested on: Rattus norvegicus; assay: Compound was tested for its antiinflammatory activity in the rat established adjuvant arthritis paw edema assay (EST ADJ ARTH), after oral administration; type: functional; conditions: not given

In the case of `Cc1ccc(SCCCCC(CN)c2ccc(F)cc2)cc1.Cl` (stereo not given), the ED50 is reported as 50 mg/kg.

target: Phospholipase A2 (Rattus norvegicus, UniProt P04055); assay: Inhibitory activity against polymorphonuclear cell phospholipase-A2 in rat; conditions: not given
Sequence (P04055 whole entry): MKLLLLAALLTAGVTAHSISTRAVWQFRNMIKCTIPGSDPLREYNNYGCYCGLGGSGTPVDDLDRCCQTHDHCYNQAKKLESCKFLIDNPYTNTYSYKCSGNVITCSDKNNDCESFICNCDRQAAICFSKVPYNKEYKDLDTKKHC

`C[C@@H]1C[C@H]2[C@@H]3CCC4=CC(=O)C=C[C@]4(C)[C@@]3(F)[C@@H](O)C[C@]2(C)[C@@]1(O)C(=O)CO` [DEXAMETHASONE] and `NC1=NN(c2cccc(C(F)(F)F)c2)CC1` [BW-755C] cannot be ordered by IC50: > 750 µM for the first, > 25 µM for the second.

Compared with `Cc1ccc(SCCCC(CN)c2ccc(F)cc2)cc1.Cl` (stereo in doubt; 2), `Cc1ccc(SCCCCC(CN)c2ccc(F)cc2)cc1.Cl` (stereo not given) is 5.1-fold lower in IC50: 28.3 µM for the first, 5.5 µM for the second.

Going from `Cl.NCC(CCCSc1ccc2ccccc2c1)c1ccc(F)cc1` (stereo not given) to `Cl.NCC(CCCCSc1ccc2ccccc2c1)c1ccc(F)cc1` (stereo not given), the IC50 falls from 14 µM to 2.4 µM (5.8-fold). The second is the more potent here.

`CC(C)(C)c1ccc(SCCCCC(CN)c2ccc(F)cc2)cc1.Cl` (stereo not given) and `Cc1ccc(SCCCCCC(CN)c2ccc(F)cc2)cc1.Cl` (stereo not given) are within 1.5-fold of each other in IC50: 4.8 µM for the first, 6.6 µM for the second.

Going from `Cc1ccc(SCCCC(CN)c2ccc(F)cc2)cc1.Cl` (stereo in doubt) to `CCN(CC)CCCC(C)Nc1c2ccc(Cl)cc2nc2ccc(OC)cc12` (stereo not given) [QUINACRINE], the IC50 rises from 54 µM to 100 µM (1.9-fold).

tested on: Mus musculus; assay: Percent inhibition for its antiinflammatory activity in the tetradecanoyl phorbol acetate mouse ear edema assay (TPA EAR); Inhibition at 100 […]; type: functional; conditions: not given

`Cc1ccc(SCCCCC(CN)c2ccc(F)cc2)cc1.Cl` (stereo not given) showed an Inhibition of 37%.

tested on: Mus musculus; assay: Compound was tested for its oral antiinflammatory activity in the mouse contact sensitivity assay (CON SEN) at the specified dose, activity expressed as % inhibition at 50 mg/Kg; type: functional; conditions: not given

Compound `Cc1ccc(SCCCCC(CN)c2ccc(F)cc2)cc1.Cl` (stereo not given) has an inhibition in vivo at 50 mg/kg of 51.2%.

species on record: Mus musculus; assay: Compound was tested for its oral antiinflammatory activity in the mouse contact sensitivity assay (CON SEN); type: functional; conditions: not given

Work on `Cc1ccc(SCCCCC(CN)c2ccc(F)cc2)cc1.Cl` (stereo not given) yielded an ED35 of 8.9 mg/kg.
